Results taken from PMC6505199, “In vitro characterization of odorranalectin for peptide-based drug delivery across the blood–brain barrier” (BMC Neuroscience, 2019).

Experiments:
[1] = BSA-conjugated monosaccharides and cell-based assays; relative to L-fucose; cited from earlier work
Excerpt: Previous studies reported the potential of lectins as drug carriers to specific sites of action based on their ability to selectively bind to specific sugar moieties of targeted cells. In addition, lectins could promote drug targeting into or across the cell barriers through vesicular transport. […] As also shown in Fig. 4, it is quite evident that the internalized OL is stable at all concentration tested further supporting the notion that this peptide is likely internalized into the cellular endosome but not the lysosomes.

mice = tested on: mice; set-up: method as in PMID 18584053; settings: cited from earlier work
[2] = set-up: method as in PMID 18584053; settings: cited from earlier work
hCMEC/D3 cells = test: Cellular uptake/internalization of FAM-labelled peptide (lysate fluorescence normalized to protein; fluorescence imaging); assay type: in vitro ADME, human; settings: 3 h
Description: All experiments were performed on human brain microvascular endothelial cell line (hCMEC/D3; Millipore Sigma, Massachusetts, US, cat# SCC066), an established and well characterized model of human BBB in vitro [11, 15, 16]. Cells (2.5 × 10^3/cm^2; passages 29–32) were cultured on sterile flasks, 96-well plates (for cell viability) and chamber slides (for immunofluorescence imaging) previously coated with Matrigel in HEPES buffered basal endothelial medium (EBM2) supplemented with various growth factors and 5% FBS using Lonza EGM2 MV BulletKit™ [15]. Following 80–90% confluence, cells were subjected to experimental conditions as listed below with serum concentration reduced to 1% FBS. Culture medium’s composition was adjusted (EBM2 medium buffered with HEPES and 1% BSA with no growth factors) to determine the effects of pH and serum (%; protein binding) on the cellular uptake of FAM-OL peptide. Basic pH was maintained with addition of 1 N sodium hydroxide to the medium, while acidic pH was established by addition of phosphoric acid. Cells were lysed with RIPA buffer at the end of treatment with OL peptide and the florescence intensity was measured using BioTek Synergy2 Multimode microplate reader using cellular lysates from cells treated with 0.1% DMSO as controls at 490/520 nm. […]

odorranalectin [OL]
Binding to N-acetyl-d-galactosamine [1]: to a lesser degree
Binding to galactose [1]: to a lesser degree
Toxicity profile in mice (mice): low toxicity profile
Immunogenicity [2]: low immunogenicity
Concentration dependence of cellular uptake (hCMEC/D3 cells; hCMEC/D3, 10-100 µg/mL, 37 °C, media 1% FBS, 0.1% DMSO, fluorescence imaging / lysate fluorescence 490/520 nm normalized per µg protein (BCA), N = 4-5): increased linearly
Cellular uptake compared to scramble peptide at identical concentrations (hCMEC/D3 cells; hCMEC/D3, 37 °C, 1% FBS, total cell lysate fluorescence normalized per µg protein, side by side, P < 0.01): two to threefolds higher
